According to patent US20010009912A1, “NEW DERIVATIVES OF PYRIDIL PIPERAZINE OR PYRIDAZINYL PIPERAZYL, PROCESS FOR PRODUCTION THEREOF AND MEDICAMENTS CONTAINING THESE COMPOUNDS” (priority 1995, published 2001):

Target: isolated activated GpIIb/IIIa receptor (Homo sapiens, UniProt P05106+P08514)
Assay: GpIIb/IIIa-Fibrinogen-ELISA (inhibition of fibrinogen binding to coated receptor)
Details: inhibition of fibrinogen-GpIIb/IIIa interaction, O.D. at 405 nm
Description: Microtitre plates are coated overnight with 2 μg/ml isolated activated GpIIb/IIIa receptor. After removing the unbound receptor by several washing steps, the surface of the plates is blocked with 1% casein and washed again. The test substance is added in the required concentrations and the plates are incubated for 10 minutes while shaking in a linear shaker. The natural ligand of the gpIIb/IIIa receptor, fibrinogen, is added. After 1 hour of incubation the unbound fibrinogen is removed by several washing steps and bound fibrinogen is detected by a peroxidase-conjugated anti-fibrinogen monoclonal antibody by measuring the O.D. at 405 nm in an ELISA-reader. Inhibition of fibrinogen-GpIIb/IIIa interaction results in a low O.D. An IC50 is calculated in relation to a concentration-effect curve.
The GpIIb/IIIa-Fibrinogen-ELISA is a modification of the assays described in the following literature:
Nachman, R. L. & Leung, L. L. K. (1982): Complex formation of platelet membrane glycoproteins IIb and IIIa with fibrinogen. J. Clin. Invest. 69:263-269. Wright, P. S. et al. (1993): An echistatin C-terminal peptide activated GpIIbIIIa binding to fibrinogen, fibronectin, vitronectin and collagen type I and type IV. Biochem. J. 293:263-276.

Chain of isolated activated GpIIb/IIIa receptor (P08514 32-887 limits assumed): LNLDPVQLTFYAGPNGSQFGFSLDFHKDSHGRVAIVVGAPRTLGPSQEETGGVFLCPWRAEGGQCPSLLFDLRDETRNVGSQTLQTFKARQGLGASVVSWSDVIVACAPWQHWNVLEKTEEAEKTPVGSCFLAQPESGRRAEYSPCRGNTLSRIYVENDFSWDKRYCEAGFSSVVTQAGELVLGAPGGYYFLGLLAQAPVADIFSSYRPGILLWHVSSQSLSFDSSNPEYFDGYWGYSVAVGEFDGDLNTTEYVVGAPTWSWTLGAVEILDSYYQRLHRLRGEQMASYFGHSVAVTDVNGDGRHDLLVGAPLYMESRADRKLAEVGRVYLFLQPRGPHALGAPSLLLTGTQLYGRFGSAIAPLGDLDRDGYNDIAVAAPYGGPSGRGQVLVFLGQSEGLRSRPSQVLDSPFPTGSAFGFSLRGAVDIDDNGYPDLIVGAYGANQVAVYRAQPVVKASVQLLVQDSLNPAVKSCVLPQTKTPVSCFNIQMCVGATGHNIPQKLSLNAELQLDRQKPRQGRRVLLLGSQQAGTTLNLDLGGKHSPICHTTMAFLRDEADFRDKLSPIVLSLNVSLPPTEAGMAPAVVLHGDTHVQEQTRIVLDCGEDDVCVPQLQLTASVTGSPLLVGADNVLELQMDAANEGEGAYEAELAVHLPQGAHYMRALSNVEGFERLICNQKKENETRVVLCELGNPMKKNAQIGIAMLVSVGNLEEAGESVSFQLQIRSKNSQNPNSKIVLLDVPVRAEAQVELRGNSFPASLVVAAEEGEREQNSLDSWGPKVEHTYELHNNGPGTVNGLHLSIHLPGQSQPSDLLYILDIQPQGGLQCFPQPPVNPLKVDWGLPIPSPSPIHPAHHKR
Chain of isolated activated GpIIb/IIIa receptor (P08514 891-1039 partner limits assumed): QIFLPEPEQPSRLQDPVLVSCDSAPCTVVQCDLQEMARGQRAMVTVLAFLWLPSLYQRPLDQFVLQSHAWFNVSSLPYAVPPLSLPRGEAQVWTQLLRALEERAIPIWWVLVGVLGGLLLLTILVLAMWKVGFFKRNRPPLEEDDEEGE
Chain of isolated activated GpIIb/IIIa receptor (P05106 27-788): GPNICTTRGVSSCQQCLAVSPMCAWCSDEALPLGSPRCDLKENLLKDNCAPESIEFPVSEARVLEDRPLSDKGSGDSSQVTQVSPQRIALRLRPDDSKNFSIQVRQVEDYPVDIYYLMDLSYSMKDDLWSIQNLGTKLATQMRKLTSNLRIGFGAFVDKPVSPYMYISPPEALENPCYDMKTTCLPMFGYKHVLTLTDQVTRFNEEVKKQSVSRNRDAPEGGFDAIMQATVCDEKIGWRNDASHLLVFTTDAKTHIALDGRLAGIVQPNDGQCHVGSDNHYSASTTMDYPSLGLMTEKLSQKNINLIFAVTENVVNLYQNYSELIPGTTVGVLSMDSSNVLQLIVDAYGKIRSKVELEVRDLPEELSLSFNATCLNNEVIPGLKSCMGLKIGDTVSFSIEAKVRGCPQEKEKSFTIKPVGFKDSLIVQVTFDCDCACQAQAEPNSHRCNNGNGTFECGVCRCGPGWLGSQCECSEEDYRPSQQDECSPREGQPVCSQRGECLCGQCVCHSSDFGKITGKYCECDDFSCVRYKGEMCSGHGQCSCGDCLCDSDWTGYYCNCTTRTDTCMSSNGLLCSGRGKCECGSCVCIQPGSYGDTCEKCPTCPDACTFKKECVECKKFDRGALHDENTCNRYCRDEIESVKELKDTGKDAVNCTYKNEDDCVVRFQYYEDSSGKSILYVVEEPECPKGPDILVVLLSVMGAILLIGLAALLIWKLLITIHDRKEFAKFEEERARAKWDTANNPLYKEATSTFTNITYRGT

IC50 | SMILES
100 nM | O=C(O)CC1CCC(CCN2CCN(c3ccncc3)CC2)CC1 (centres unmarked) [Example 4, {4-[2-(4-Pyridin-4-yl-piperazin-1-yl)-ethyl]-cyclohexyl} -acetic acid]
2500 nM | O=C(O)CC1(O)CCC(N2CCN(c3ccncc3)CC2)CC1 (stereo not drawn) [cis-1-hydroxy-4-[4-(4-pyridyl)-piperazin-1-yl] -acetic acid]
